# Measurements reported in patent US12453349B2, “Compositions comprising pyridine carboxylate herbicides and 4-hydroxyphenyl-pyruvate dioxygenase (HPPD) inhibitor herbicides” (Corteva Agriscience LLC, priority 2018, dated 2025).
# Where “and” joins values, the source holds several entries; their conditions need not be identical. Equal entries are not always repeated.
# Key:
# Format in all cases: in vivo
# [1] = tested on: STEME, Stellaria media (chickweed); assay: Greenhouse postemergence herbicidal effect, visual injury 20-22 d after application
# Source text: (§1) Seeds of the desired test plant species were planted in a 90:10% v/v (volume/volume) mixture of PRO-MIX® BX (Premier Tech Horticulture, Quakertown, PA, USA) and PROFILE® GREENS GRADE™ (Profile Products LLC, Buffalo Grove, IL, USA) planting mixture, which typically has a pH of 5.2 to 6.2 and an organic matter content of at least 50 percent, in plastic pots with a surface area of 103.2 square centimeters (cm^2). In some aspects, to help ensure good germination and healthy plants, a fungicide treatment and/or other chemical or physical treatment was applied. The plants were grown for 7-36 days (d) in a greenhouse with an approximate 14-hour (h) photoperiod which was maintained at about 23° C. during the day and 22° C. during the night. Nutrients and water were added on a regular basis and supplemental lighting was provided with overhead metal halide 1000-Watt lamps as necessary. The plants were employed for testing when they reached the second or third true leaf stage.
# (§2) Emulsifiable concentrates of each of each pyridine carboxylate herbicide (Compound A or Compound B) were prepared at 100 grams acid equivalent per liter (g ae/L). The emulsifiable concentrates also included a safener, cloquintocet mexyl, at 120 grams active ingredient per liter (g ai/L). An aliquot of each emulsifiable concentrate was placed in a 25 mL glass vial and diluted with an aqueous mixture of 1.25% (v/v) ACTIROB® B esterified rapeseed oil (Bayer Crop Science, Research Triangle Park, NC, USA) or MSO® Concentrate with LECI-TECH® methylated soybean oil (Loveland Products, Loveland, CO, USA) to obtain concentrated stock solutions at the highest application rate for each herbicide, based upon a 12 milliliter (mL) application volume at a rate of 187 liters per hectare (L/ha). The concentrated stock solutions were further diluted with an aqueous mixture of 1.25% v/v ACTIROB® B or MSO® Concentrate with LECI-TECH® to obtain stock solutions at reduced application rates for each herbicide. Spray solutions of the herbicide combinations (Compound A or Compound B plus HPPD inhibitor herbicide) were prepared by adding weighed amounts or aliquots of the HPPD inhibitor herbicides to the stock solutions of Compound A or Compound B to form 12-mL spray solutions in two-way combinations.
# (§3) The spray solutions were applied to the plant material with an overhead Mandel track sprayer equipped with 8002E nozzles calibrated to deliver 187 L/ha over an application area of 0.503 square meters (m^2) at a spray height of 18 inches (43 centimeters (cm)) above the average plant canopy. Control plants were sprayed in the same manner with the solvent blank. All pyridine carboxylate herbicide (component a) application rates are given as “g ae/ha” and all HPPD inhibitor herbicide (component b) application rates are given as “g ai/ha.”
# (§4) The treated plants and control plants were placed in a greenhouse as described above and watered by sub-irrigation to prevent wash-off of the test compounds. After 20-22 d, the condition of the test plants as compared with that of the control plants was determined visually and scored on a scale of 0 to 100 percent where 0 corresponds to no injury and 100 corresponds to complete kill.
# [2] = tested on: SETFA, Setaria faberi (giant foxtail); assay: as above
# Source text: as §1, §2, §3, §4
# [3] = tested on: LOLMU, Lolium multiflorum (Italian ryegrass); assay: as above
# Source text: as §1, §2, §3, §4
# [4] = tested on: KCHSC, Kochia scoparia (kochia); assay: as above; details: Bassia scoparia, post-emergence, KCHSC, read-out: % visual injury Obs
# Source text: as §1, §2, §3, §4
# [5] = tested on: BRSNN, Brassica napus (spring rape); assay: as above
# Source text: as §1, §2, §3, §4
# [6] = tested on: DIGSA, Digitaria sanguinalis (large crabgrass); assay: as above
# Source text: as §1, §2, §3, §4
# [7] = tested on: ECHCG, Echinochloa crus-galli (barnyard grass); assay: as above
# Source text: as §1, §2, §3, §4
# [8] = tested on: AMARE, Amaranthus retroflexus (pigweed); assay: as above
# Source text: as §1, §2, §3, §4
# [9] = tested on: IPOHE, Ipomoea hederacea (ivyleaf morningglory); assay: as above
# Source text: as §1, §2, §3, §4
# [10] = tested on: MATCH, Matricaria chamomilla (wild chamomile); assay: as above
# Source text: as §1, §2, §3, §4
# [11] = tested on: EPHHL, Euphorbia heterophylla (poinsettia); assay: as above
# Source text: as §1, §2, §3, §4
# [12] = tested on: POLCO, Polygonum convolvulus (wild buckwheat); assay: as above
# Source text: as §1, §2, §3, §4
# [13] = tested on: HELAN, Helianthus annuus (common sunflower); assay: as above
# Source text: as §1, §2, §3, §4
# [14] = tested on: VIOTR, Viola tricolor (wild pansy); assay: as above
# Source text: as §1, §2, §3, §4
# [15] = tested on: SASKR, Salsola kali (Russian thistle); assay: as above
# Source text: as §1, §2, §3, §4
# [16] = tested on: BRSNW, Brassica napus (winter rape); assay: as above
# Source text: as §1, §2, §3, §4
# [17] = tested on: ABUTH, Abutilon theophrasti (velvetleaf); assay: as above
# Source text: as §1, §2, §3, §4
# [18] = tested on: CHEAL, Chenopodium album L. (common lambsquarters); assay: as above
# Source text: as §1, §2, §3, §4
# [19] = tested on: SINAR, Sinapis arvensis (wild mustard); assay: as above
# Source text: as §1, §2, §3, §4
# [20] = tested on: TRZAS, Triticum aestivum (spring wheat); assay: Greenhouse postemergence phytotoxicity on crop, visual injury 20-22 d after application
# Source text: as §1, §2, §3, §4
# [21] = tested on: HORVS, Hordeum vulgare (spring barley); assay: as above
# Source text: as §1, §2, §3, §4
# [22] = tested on: CIRAR, Cirsium arvense (Canadian thistle); assay: Greenhouse postemergence herbicidal effect, visual injury 20-22 d after application
# Source text: as §1, §2, §3, §4
smiles,measurement,setting,value
"CS(=O)(=O)c1ccc(C(=O)C2=C(Sc3ccccc3)C3CCC(C3)C2=O)c(Cl)c1 (stereo not shown) [Benzobicyclon, 3-[2-chloro-4-(methylsulfonyl)benzoyl]-4-(phenylthio)bicyclo[3.2.1]oct-3-en-2-one]",% visual injury Obs,[1]; Benzobicyclon 50 g ai/ha,28%
same,% visual injury Obs,[2]; Benzobicyclon 50 g ai/ha,0%
same,% visual injury Obs,[3]; Benzobicyclon 50 g ai/ha,0%
same,pest or weed control at 50 g/ha,[4]; Benzobicyclon 50 g ai/ha,0%
same,% visual injury Obs,[5]; Benzobicyclon 50 g ai/ha,8%
same,% visual injury Obs,[6]; Benzobicyclon 50 g ai/ha,10%
same,% visual injury Obs,[7]; Benzobicyclon 50 g ai/ha,0%
"N#CCOC(=O)c1nc(-c2ccc3cc[nH]c3c2F)c(F)c(N)c1Cl [Compound A, cyanomethyl 4-amino-3-chloro-5-fluoro-6-(7-fluoro-1H-indol-6-yl)pyridine-2-carboxylate]",% visual injury Obs,[1]; Compound A 7.5 g ae/ha,90%
same,% visual injury Obs,[1]; Compound A 10 g ae/ha,85%
same,% visual injury Obs,[8]; Compound A 7.5 g ae/ha,80% and 90% and 70%
same,% visual injury Obs,[8]; Compound A 10 g ae/ha,85% and 90%
same,% visual injury Obs,[9]; Compound A 7.5 g ae/ha,5%
same,% visual injury Obs,[9]; Compound A 10 g ae/ha,0%
same,% visual injury Obs,[2]; Compound A 7.5 g ae/ha,60%
same,% visual injury Obs,[2]; Compound A 10 g ae/ha,78%
same,% visual injury Obs,[3]; Compound A 7.5 g ae/ha,8%
same,% visual injury Obs,[3]; Compound A 10 g ae/ha,3%
same,pest or weed control at 7.5 g/ha,[4]; Compound A 7.5 g ae/ha,63%
same,pest or weed control at 10 g/ha,[4]; Compound A 10 g ae/ha,70%
same,% visual injury Obs,[10]; Compound A 7.5 g ae/ha,10% and 18%
same,% visual injury Obs,[10]; Compound A 10 g ae/ha,20% and 30%
same,% visual injury Obs,[11]; Compound A 7.5 g ae/ha,91%
same,% visual injury Obs,[11]; Compound A 10 g ae/ha,83%
same,% visual injury Obs,[12]; Compound A 10 g ae/ha,70% and 43%
same,% visual injury Obs,[5]; Compound A 10 g ae/ha,45% and 60%
same,% visual injury Obs,[13]; Compound A 7.5 g ae/ha,83%
same,% visual injury Obs,[13]; Compound A 10 g ae/ha,88%
same,% visual injury Obs,[14]; Compound A 7.5 g ae/ha,3%
same,% visual injury Obs,[14]; Compound A 10 g ae/ha,3%
same,% visual injury Obs,[15]; Compound A 7.5 g ae/ha,60%
same,% visual injury Obs,[15]; Compound A 10 g ae/ha,63%
same,% visual injury Obs,[16]; Compound A 7.5 g ae/ha,35% and 63%
same,% visual injury Obs,[16]; Compound A 10 g ae/ha,40% and 68%
same,% visual injury Obs,[6]; Compound A 7.5 g ae/ha,13%
same,% visual injury Obs,[6]; Compound A 10 g ae/ha,25%
same,% visual injury Obs,[17]; Compound A 7.5 g ae/ha,40%
same,% visual injury Obs,[17]; Compound A 10 g ae/ha,48%
same,% visual injury Obs,[18]; Compound A 7.5 g ae/ha,75% and 70%
same,% visual injury Obs,[18]; Compound A 10 g ae/ha,80% and 78%
same,% visual injury Obs,[7]; Compound A 7.5 g ae/ha,80%
same,% visual injury Obs,[7]; Compound A 10 g ae/ha,88%
same,% visual injury Obs,[19]; Compound A 7.5 g ae/ha,83% and 85%
same,% visual injury Obs,[19]; Compound A 10 g ae/ha,88%
same,% visual injury Obs,[20]; Compound A 7.5 g ae/ha,0%
same,% visual injury Obs,[20]; Compound A 10 g ae/ha,0%
same,% visual injury Obs,[21]; Compound A 7.5 g ae/ha,8% and 0%
same,% visual injury Obs,[21]; Compound A 10 g ae/ha,0%
"C#CCOC(=O)c1nc(-c2ccc3cc[nH]c3c2F)c(F)c(N)c1Cl [Compound B, propargyl 4-amino-3-chloro-5-fluoro-6-(7-fluoro-1H-indol-6-yl)pyridine-2-carboxylate]",% visual injury Obs,[22]; Compound B 7.5 g ae/ha,45%
same,% visual injury Obs,[22]; Compound B 10 g ae/ha,45%
same,% visual injury Obs,[14]; Compound B 7.5 g ae/ha,10%
same,% visual injury Obs,[14]; Compound B 10 g ae/ha,40%
same,% visual injury Obs,[17]; Compound B 7.5 g ae/ha,68%
same,% visual injury Obs,[17]; Compound B 10 g ae/ha,68%
"CS(=O)(=O)c1cc(C(F)(F)F)ccc1C(=O)c1cnoc1C1CC1 [Isoxaflutole, (5-cyclopropyl-4-isoxazolyl)[2-(methylsulfonyl)-4-(trifluoromethyl)phenyl]methanone]",% visual injury Obs,[8]; Isoxaflutole 60 g ai/ha,53%
same,% visual injury Obs,[9]; Isoxaflutole 60 g ai/ha,38%
same,% visual injury Obs,[22]; Isoxaflutole 60 g ai/ha,70%
same,pest or weed control at 60 g/ha,[4]; Isoxaflutole 60 g ai/ha,38%
same,% visual injury Obs,[12]; Isoxaflutole 60 g ai/ha,0%
same,% visual injury Obs,[13]; Isoxaflutole 60 g ai/ha,85%
same,% visual injury Obs,[14]; Isoxaflutole 60 g ai/ha,25%
same,% visual injury Obs,[17]; Isoxaflutole 60 g ai/ha,58%
